Assay results from US10011602B2, “Immunological reagents and uses therefor” (THE UNIVERSITY OF MELBOURNE, priority 2012, dated 2018).

Key:
Jurkat.MAIT cells = assay: Activation of Jurkat.MAIT cells (CD69) with C1R antigen presenting cells expressing MR1; format: cell-based, human
Method: Jurkat cells transduced with a MAIT TCR comprising the TRAV1-2+TRAJ33 invariant α chain, and a TRBV6-1 β chain were tested for activation by addition of Salmonella supernatant to C1R antigen presenting cells expressing MR1 for 16 hours. Jurkat.MAIT cells were subsequently stained with PE-conjugated anti-CD3, and APC-conjugated anti-CD69 antibodies before analysis by flow cytometry. Activation of Jurkat.MAIT cells was measured by an increase in surface CD69 expression. Compounds to be tested for the ability to activate Jurkat.MAIT cells were tested alongside Salmonella supernatant.
A biological assay for the activation of MAIT T cell receptor (TCR)-expressing T cell lines (into which genes encoding the MAIT TCR alpha and beta chains had been introduced), by antigen presenting cells (expressing MR1 on the cell surface) infected with the bacterium Salmonella typhimurium has been established. This assay measures the increase in expression of the cell surface activation marker, CD69, upon activation of MAIT T cells.

MR1 = molecular target: T1, MR1 (Homo sapiens, UniProt Q95460); assay: Refolding of denatured MR1 and β2m with ligands; format: binding; details: substance added to MR1/β2m refold
T1 construct: soluble human MR1 (residues 1-270 of the mature, leaderless protein); made in house
Method: Genes encoding soluble human MR1 (residues 1-270 of the mature, leaderless protein, lacking the transmembrane and cytoplasmic domains); or human β2m (mature, leaderless protein) were expressed for four hours in BL21 E. coli following induction with 1 mM isopropyl β-D-1-thiogalactopyranoside. E. coli were pelleted and resuspended in a buffer containing 50 mM Tris, 25% (w/v) sucrose, 1 mM EDTA, 10 mM DTT pH 8.0. Inclusion body protein was then extracted by lysis of bacteria in a buffer containing 50 mM Tris pH 8.0, 1% (w/v) Triton X-100, 1% (w/v) sodium deoxycholate, 100 mM NaCl, 10 mM DTT, 5 mM MgCl2, and 1 mg DnaseI per liter of starting culture; and subsequent steps involved homogenization with a polytron homogenizer, centrifugation, and washing inclusion body protein sequentially with firstly a buffer containing 50 mM Tris pH 8, […], 100 mM NaCl, 1 mM EDTA, 1 mM DTT, and secondly a buffer containing 50 mM Tris pH 8.0, 1 mM EDTA, 1 mM DTT. Inclusion body protein was then resuspended in a buffer containing 20 mM Tris pH 8.0, 8 M urea, 0.5 mM EDTA, 1 mM DTT, and following centrifugation the supernatant containing solubilized, denatured inclusion body protein was collected and stored at −80° C.
2 mg of 6-formyl pterin, 56 mg of denatured inclusion body MR1 protein, and 28 mg of β2m protein were added to a 400 ml refold buffer solution containing 0.1 M Tris pH 8.5, 2 mM EDTA, 0.4 M arginine, 0.5 mM oxidized glutathione, 5 mM reduced glutathione. Variably, 5M urea was either present or absent. Following an overnight incubation at 4° C., the refold buffer was dialysed against 3 changes of buffer containing 10 mM Tris, pH8.0 over a period of 24 hours. Refolded MR1-β2m-ligand complex was then purified by sequential DEAE (GE Healthcare) anion exchange, S75 16/60 (GE Healthcare) gel filtration, and MonoQ (GE Healthcare) anion exchange chromatography.

Jurkat.LC13 line = assay: Activation of control Jurkat.LC13 line in the presence of C1R.HLA-B8 cells; format: cell-based, human
Source text: Next, to formally establish whether 7-hydroxy-6-methyl-8-ribityl lumazine and/or its precursor, 6,7-dimethyl-8-ribityl lumazine, could activate MAIT cells, both compounds were chemically synthesized their ability to enable MR1 refolding and to activate Jurkat.MAIT cells and human MAIT cells from peripheral blood tested. […] Thus, direct precursors of riboflavin biosynthesis activate MAIT cells.

Ability to refold MR1 into native MR1-β2m complex (MR1): could be refolded with MR1
Structure (SMILES): Cc1nc2c(=O)[nH]c(=O)nc-2n(C[C@H](O)[C@H](O)[C@H](O)CO)c1C [Compound 1, 6,7-dimethyl-8-D-ribityllumazine]
Activation of Jurkat.MAIT cells (increase in surface CD69) (Jurkat.MAIT cells): activated
Activation of control Jurkat.LC13 line (Jurkat.LC13 line): failed to activate
